Measurements: ChEMBL document CHEMBL1156397, “A benzylisoquinoline alkaloid from Doryphora sassafras” (J Nat Prod, 2001)

Molecular target: Kappa-type opioid receptor (Cavia porcellus) (UniProt P41144)
Assay: Displacement of [3H]U69593 from kappa opioid receptor in guinea pig brain membrane at 100 uM by Betaplate liquid scintillation counter
Assay type: cell membranes

Chain of Kappa-type opioid receptor (Cavia porcellus) (P41144 whole entry): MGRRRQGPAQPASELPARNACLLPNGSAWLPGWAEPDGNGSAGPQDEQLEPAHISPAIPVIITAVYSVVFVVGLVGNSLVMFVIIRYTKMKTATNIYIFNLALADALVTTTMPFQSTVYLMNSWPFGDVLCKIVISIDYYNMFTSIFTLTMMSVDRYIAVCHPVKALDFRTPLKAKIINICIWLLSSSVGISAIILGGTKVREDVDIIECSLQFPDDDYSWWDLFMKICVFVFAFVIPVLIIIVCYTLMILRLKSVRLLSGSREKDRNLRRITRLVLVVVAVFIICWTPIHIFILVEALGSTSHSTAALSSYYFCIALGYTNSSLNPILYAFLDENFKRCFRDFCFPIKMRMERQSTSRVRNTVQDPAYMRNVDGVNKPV

Activity: 50%
Structure (SMILES): COc1ccc(Cc2c3cc4c(cc3cc[n+]2C)OCO4)cc1
